Experimental data reported in PubChem BioAssay AID2060504 (Molecular Pharmacology Branch, DTP, NCI, 2025).

System: 636577-100-R-J1-PDC complex spheroid viability
Assay: Anticancer human tumor 636577-100-R-J1-PDC patient-derived endometrial adenocarcinoma cell line growth inhibition [GQUAD]
Details: for IC50: curve of first compound; for viability, T/C: stronger effect = lower value; active = viability on the fitted dose curve at most 10% of control; inactive = the rest
Method in brief: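 Multi-cell-type spheroids of tumor cells with HUVEC and mesenchymal stem cells, treated with drug combinations. Concentrations descend in half-log steps from near clinical Cmax, or from 10 microM where Cmax is unknown; viability read-out.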

[1] = second compound 0.0316 µM, first compound 0.0316 µM
[2] = second compound 0.0316 µM, first compound 0.1 µM
[3] = second compound 0.0316 µM, first compound 0.316 µM
[4] = second compound 0.0316 µM, first compound 1 µM
[5] = second compound 0.0316 µM, first compound 3.16 µM
[6] = second compound 0.0316 µM, first compound 10 µM
[7] = second compound 0.1 µM, first compound 0.0316 µM
[8] = second compound 0.1 µM, first compound 0.1 µM
[9] = second compound 0.1 µM, first compound 0.316 µM
[10] = second compound 0.1 µM, first compound 1 µM
[11] = second compound 0.1 µM, first compound 3.16 µM
[12] = second compound 0.1 µM, first compound 10 µM
[13] = second compound 0.316 µM, first compound 0.0316 µM
[14] = second compound 0.316 µM, first compound 0.1 µM
[15] = second compound 0.316 µM, first compound 0.316 µM
[16] = second compound 0.316 µM, first compound 1 µM
[17] = second compound 0.316 µM, first compound 3.16 µM
[18] = second compound 0.316 µM, first compound 10 µM
[19] = second compound 1 µM, first compound 0.0316 µM
[20] = second compound 1 µM, first compound 0.1 µM
[21] = second compound 1 µM, first compound 0.316 µM
[22] = second compound 1 µM, first compound 1 µM
[23] = second compound 1 µM, first compound 3.16 µM
[24] = second compound 1 µM, first compound 10 µM
[25] = second compound 3.16 µM, first compound 0.0316 µM
[26] = second compound 3.16 µM, first compound 0.1 µM
[27] = second compound 3.16 µM, first compound 0.316 µM
[28] = second compound 3.16 µM, first compound 1 µM
[29] = second compound 3.16 µM, first compound 3.16 µM
[30] = second compound 3.16 µM, first compound 10 µM
[31] = second compound 10 µM, first compound 0.0316 µM
[32] = second compound 10 µM, first compound 0.1 µM
[33] = second compound 10 µM, first compound 0.316 µM
[34] = second compound 10 µM, first compound 1 µM
[35] = second compound 10 µM, first compound 3.16 µM
[36] = second compound 10 µM, first compound 10 µM
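Also: viability read after seven days of drug exposure.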
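For viability, T/C in this document: luminescence signal used as a proxy for viable cells; 100% = DMSO vehicle control wells.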

O=C(c1cc(Cc2n[nH]c(=O)c3ccccc23)ccc1F)N1CCN(C(=O)C2CC2)CC1 + Cc1[nH]c2ccc(F)cc2c1-c1nc2c3cccnc3c3ncccc3c2[nH]1
0.305 µM: IC50 (second compound 0.0316 µM)
5.55 µM: IC50 (second compound 1 µM)
< 0.0316 µM: IC50 (second compound 3.16 µM)
inactive: viability, T/C [1] 103% | viability, T/C [2] 79.4% | viability, T/C [3] 46.5% | viability, T/C [4] 58.6% | viability, T/C [5] 50.4% | viability, T/C [6] 40.6% | viability, T/C [7] 100% | viability, T/C [8] 96.5% | viability, T/C [9] 65.2% | viability, T/C [10] 43.7% | viability, T/C [11] 67.6% | viability, T/C [12] 36.9% | viability, T/C [13] 90.1% | viability, T/C [14] 75.3% | viability, T/C [15] 66.7% | viability, T/C [16] 61.6% | viability, T/C [17] 53.7% | viability, T/C [18] 32.4% | viability, T/C [19] 60.6% | viability, T/C [20] 65.7% | viability, T/C [21] 65.6% | viability, T/C [22] 57.9% | viability, T/C [23] 63.4% | viability, T/C [24] 37% | viability, T/C [25] 39.4% | viability, T/C [26] 40.7% | viability, T/C [27] 43.5% | viability, T/C [28] 43.3% | viability, T/C [29] 31.6% | viability, T/C [30] 29.9% | viability, T/C [31] 34.6% | viability, T/C [32] 64.9% | viability, T/C [33] 57.3% | viability, T/C [34] 41.9% | viability, T/C [35] 54% | viability, T/C [36] 33%
2.69 µM: IC50 (second compound 0.316 µM)
3.06 µM: IC50 (second compound 0.1 µM)
3.28 µM: IC50 (second compound 10 µM)

CCCS(=O)(=O)Nc1ccc(F)c(C(=O)c2c[nH]c3ncc(-c4ccc(Cl)cc4)cc23)c1F + Cc1[nH]c2ccc(F)cc2c1-c1nc2c3cccnc3c3ncccc3c2[nH]1
> 10 µM: IC50 (second compound 0.0316 µM)
7.08 µM: IC50 (second compound 0.316 µM)
5.37 µM: IC50 (second compound 0.1 µM)
inactive: viability, T/C [1] 98.2% | viability, T/C [2] 87.4% | viability, T/C [3] 116% | viability, T/C [4] 56.9% | viability, T/C [5] 73.5% | viability, T/C [6] 43.6% | viability, T/C [7] 101% | viability, T/C [8] 69.4% | viability, T/C [9] 104% | viability, T/C [10] 58.7% | viability, T/C [11] 66.3% | viability, T/C [12] 37.3% | viability, T/C [13] 94.2% | viability, T/C [14] 79.6% | viability, T/C [15] 81.2% | viability, T/C [16] 89.6% | viability, T/C [17] 80.4% | viability, T/C [18] 36.7% | viability, T/C [19] 87.4% | viability, T/C [20] 83.1% | viability, T/C [21] 63.9% | viability, T/C [22] 82.9% | viability, T/C [23] 69.4% | viability, T/C [24] 41.6% | viability, T/C [25] 28% | viability, T/C [26] 25.4% | viability, T/C [27] 31.2% | viability, T/C [28] 32.5% | viability, T/C [29] 31.9% | viability, T/C [30] 20.4% | viability, T/C [31] 40.2% | viability, T/C [32] 49.2% | viability, T/C [33] 48.7% | viability, T/C [34] 45.1% | viability, T/C [35] 43.5% | viability, T/C [36] 28.3%
< 0.0316 µM: IC50 (second compound 3.16 µM) | IC50 (second compound 10 µM)
7.15 µM: IC50 (second compound 1 µM)

CC1COCCN1c1cc(C2(O)CC3CCC(C2)O3)c2cnn(-c3ccn[nH]3)c2n1 (stereo unspecified) + Cc1[nH]c2ccc(F)cc2c1-c1nc2c3cccnc3c3ncccc3c2[nH]1
inactive: viability, T/C [1] 82.9% | viability, T/C [2] 33.8% | viability, T/C [3] 18.5% | viability, T/C [7] 71.2% | viability, T/C [8] 35.3% | viability, T/C [9] 18.7% | viability, T/C [13] 67.1% | viability, T/C [14] 36.1% | viability, T/C [15] 15.7% | viability, T/C [19] 32% | viability, T/C [20] 26% | viability, T/C [21] 14.9% | viability, T/C [25] 17.9% | viability, T/C [26] 14.8% | viability, T/C [27] 10.7% | viability, T/C [31] 24.6% | viability, T/C [32] 21.4% | viability, T/C [33] 15.2%
0.0633 µM: IC50 (second compound 0.1 µM)
< 0.0316 µM: IC50 (second compound 1 µM) | IC50 (second compound 3.16 µM) | IC50 (second compound 10 µM)
0.0706 µM: IC50 (second compound 0.0316 µM)
active: viability, T/C [4] 7.11% | viability, T/C [5] 3.67% | viability, T/C [6] 1.06% | viability, T/C [10] 8.6% | viability, T/C [11] 3.75% | viability, T/C [12] 1.19% | viability, T/C [16] 8.55% | viability, T/C [17] 4.01% | viability, T/C [18] 1.3% | viability, T/C [22] 8.44% | viability, T/C [23] 3.77% | viability, T/C [24] 1.61% | viability, T/C [28] 7.29% | viability, T/C [29] 3.77% | viability, T/C [30] 1.49% | viability, T/C [34] 8.61% | viability, T/C [35] 4.18% | viability, T/C [36] 1.5%
0.0592 µM: IC50 (second compound 0.316 µM)
